Experimental data taken from patent US11911464B2, “Anti-parasitic immunological compositions” (Prommune, Inc., priority 2018, dated 2024).
Non-standard residues stand in square brackets, D forms with d. No end group written: not given here. NMeL = CN[C@@H](CC(C)C)C(=O)O

Assays:
[1] = tested on: human monocytes; test: Differentiation of human peripheral blood monocytes (morphology); format: cell-based; details: 50 μg/ml, 48 hrs
Source text: EP67 Differentiates Human Peripheral Blood Monocytes to Cells with Phenotypes Characteristic of Macrophages/DCs.

[2] = tested on: human monocyte-derived macrophages and DCs; test: Cytokine release from human macrophages and DCs; format: cell-based; details: 50 μg/ml, after 24 hours of incubation
Protocol: Human monocyte-derived macrophages and DCs were incubated with EP67 (50 μg/ml) and scrambled EP67 (50 μg/ml) for 6 and 24 hours. Supernatants were collected and analyzed for the presence of the following cytokines: IL-1beta, IL-2, IL-4, IL-6, IL-10, IL-12p70, IL-13, IL-15, TNF-alpha, and IFN-gamma. […] It is worth noting that the prominent cytokines released at 6 and 24 hours in response to EP67 (IL-1beta, IL-2, IL-6, and TNF-alpha) represent a TH1/pro-inflammatory bias relative to the TH2/anti-inflammatory cytokines (IL-4, IL-5, IL-10, and IL-13). This TH1 bias is in keeping with earlier observations with EP67 and is an important immunologic component for an effective immune response to T. gondii.

[3] = tested on: bone marrow-derived BALB/c DCs; test: Murine dendritic cell activation (cytokine release) by EP67 vaccines; format: cell-based, mouse; details: 6 hr exposure
Source text: A subset of vaccines were developed with murine DC's from BALB/c bone marrow, and examined for cytokine response. […] Bone marrow-derived BALB/c DCs were separately exposed to EP67-containing vaccines #1 (TgSAG1) and #2 (TgGRA1) (Example 3), and compared to sham exposure (media). […] KC/GRO, also known as CXCL1, is a potent neutrophil chemotactic cytokine. Increases in INF-gamma, IL-1b, and TNF-α were also observed, and are in-line with expectations of EP67 engagement of the C5a receptor and subsequent activation of dendritic cells.

[4] = tested on: DCs; test: Surface activation markers of exposed dendritic cells by flow cytometry; format: cell-based, mouse; details: 6 hours exposure
Protocol: […] vaccines were investigated and found to increase surface activation markers of exposed white blood cells, such as DCs shown in FIG. 10, which were exposed for 6 hours to Vaccines #1 (TgSAG1) and #2 (TgGRA1). Following exposure, cells were fixed and stained with antibodies to measure cell surface markers of intact cells by flow cytometry.

[5] = tested on: human monocytes and monocyte-derived dendritic cells; test: Multiplex cytokine release from human monocytes and monocyte-derived dendritic cells (EP67 analogues); format: cell-based; details: 50 μg/ml, 6 and 24 hours
Source text: Cytokine Analysis. Considerable time was spent in learning the methods for the rapid, efficient, and high throughput method of cytokine analysis using a multiplex instrument for large panels of cytokines (MesoScale QuickPlex SQ 120). With this instrument, we tested the EP67- and analogue-mediated release of a pro-inflammatory and anti-inflammatory panel of cytokines (IL-1beta, IL-2, IL-4, IL-6, IL-10, IL-12p70, IL-13, IL-15, TNF-α, and IFN-gamma) from human monocytes and monocyte-derived dendritic cells over the course of 6 and 24 hours of exposure 50 μg/ml EP67, scrambled EP67 (scEP67), and EP67 analogues (EP144, EP146, and EP147).

[6] = tested on: bone marrow-derived mouse dendritic cells; test: qPCR detection of cytokine expression following exposure to EP67; format: cell-based; details: EP67 50 μg/ml, 24 hrs, vs PBS controls, normalized to Actin B
Protocol: Free EP67 (unattached to any epitope) was used as a control to stimulate murine bone marrow-derived dendritic cells (See Table 1 below). […] Testing these and additional cytokines (at the gene and protein-expression levels) against all of the synthesized and control vaccines is carried out. Similarly, we will also be analyzing surface marker expression indicative of DC activation.
EP67 (50 μg/ml) was incubated with bone marrow-derived mouse dendritic cells (24 hrs) following in vitro maturation. Fold changes in expression were compared to PBS controls and normalized to Actin B gene expression. Three replicates were analyzed per gene. […] A positive control, bacterial LPS, was also evaluated and produced upregulation of at least 20-fold above PBS controls for all evaluated cytokines.

[7] = tested on: human monocytes; test: Surface marker immunophenotype of human monocytes incubated with EP67; format: cell-based; details: 50 μg/ml, over 7 days
Protocol: EP67 Differentiates Human Peripheral Blood Monocytes to Cells with Immunophenotypes Characteristic of Macrophages/DCs. Human monocytes were incubated with EP67 (50 μg/ml) and surface markers analyzed over the course of 7 days.

[8] = tested on: murine splenocytes; test: Cytokine release from murine splenocytes; format: cell-based, mouse; details: 50 μg/ml
Protocol: Splencocytes were obtained from normal Balb/c mice (ca. 2 months) and aged (ca. 17 months) sentinel mice of undetermined background (a gift from the University of Nebraska Medical Center Animal Facility). Spelocytes were cultured in the presence of EP67 and scrambled EP67 (50 μg/ml) for 24 hours, supernatants harvested, and analyzed for the presence of IL-1beta, IL-2, IL-4, IL-5, IL-6, KC/GRO, IL-10, IL-12p70, TNF-alpha, and IFN-gamma. […] Splenocytes were not our original choice of APCs from mice to evaluate the effects of EP67/EP67-based vaccines, but they were chosen for this first assessment as a matter of convenience to help with getting our cell culture protocols and assays established and verified.

[9] = tested on: RAW 264.7 cells; test: TNF-alpha and IL-6 secretion from RAW 264.7 cells; format: cell-based, mouse; details: 6 hr and 24 hr exposures
Protocol: Although murine work was achieved using commercially available BALB/c cells, we felt it useful to explore additional cell options for in vitro evaluation of EP67 vaccine candidates. […] FIGS. 13A and 13B show the results of RAW 264.7 cells activated by EP67. In order to evaluate a cell line that is responsive to both EP67 and C5a (the complement protein from which the sequence of EP67 is derived), RAW 264.7 were tested for secretion of TNF-a and IL-6. For both cytokines, supernatants from both 6 hr and 24 hr exposures of recombinant C5a were high.

Molecule | conversion of monocytes into elongated, adhered macrophage/DC-like cells [1] | release of IL-1beta, IL-2, IL-6, IFN-gamma, and TNF-alpha [2] | INF-gamma, IL-1b, and TNF-α release [3] | cytokine release compared to sham (media) [3] | CD80, CCR7, and MHC Class II molecules compared to control (media only) [4] | secretion of TNF-a and IL-6 [9] | further results
(MeL)RMYKPaFDS ([NMeL]RMYKP[dA]FDS) [scrmbEP67, reference compound] | not | not | – | – | – | – | –
EEVIDTMKSMQRDEERRYSFKDMP(MeL)aR (EEVIDTMKSMQRDEERRYSFKDMP[NMeL][dA]R; not fully specified; printed as EEVIDTMKSMQRDEERRYSFKDMP(MeL)aR) [Vaccine 2] | – | – | Increases | cytokine release above the controls | Elevation occurred | – | CD80 increase compared to control (media only) [4]: > 80%
SFKDILPKLSENPWQRRYSFKDMP(MeL)aR (SFKDILPKLSENPWQRRYSFKDMP[NMeL][dA]R; not fully specified; printed as SFKDILPKLSENPWQRRYSFKDMP(MeL)aR) [Vaccine 1] | – | – | Increases | cytokine release above the controls | Elevation occurred | – | –
YSFKDM(Cha)LaR [EP147] | – | – | – | – | – | – | cytokine release (pro- and anti-inflammatory panel) [5]: increase in cytokine release
YSFKDMP(MeL)aR (YSFKDMP[NMeL][dA]R; not fully specified; printed as YSFKDMP(MeL)aR) [EP67] | converts rounded and non-adhered monocytes into elongated, adhered cells | induced the release | – | – | – | statistically significant (p<0.05) increases | Fold change CXCL1 (a.k.a. KC) expression [6]: 1.61 fold; Fold change IL-6 expression [6]: 3.40 fold; Fold change IL-10 expression [6]: 4.13 fold; Fold change TNF alpha expression [6]: 2.14 fold; expression of CD14, CD16, CD11b, and CD33 [7]: moderately enhanced; expression of CD80 and CD206 [7]: significantly enhanced; cytokine release relative to controls, aged sentinel mice splenocytes ([8]; aged ca. 17 months): more pronounced effect; cytokine release relative to controls, Balb/c splenocytes ([8]; normal Balb/c mice ca. 2 months): little effect
recombinant C5a: the complement protein from which the sequence of EP67 is derived (protein, UniProt P01031 678-751, looked up, C5a anaphylatoxin) C5a anaphylatoxin: TLQKKIEEIAAKYKHSVVKKCCYDGACVNNDETCEQRAARISLGPRCIKAFTECCVVASQLRANISHKDMQLGR | – | – | – | – | – | high | –
